Results as given in patent publication US20230203029A1 (priority 2020, published 2023).
Read-outs that look alike come from different tables or passages of the source.

Experiments:
[1] = biological target: T1, human MERTK cytoplasmic domain (Homo sapiens, UniProt Q12866); assay: biochemical
T1 construct: human MERTK cytoplasmic domain (Carna Biosciences 08-108); purchased Carna Biosciences 08-108
Procedure: Assay 1a—MERTK HTRF KinEASE-TK Assay
The enzymatic reaction was carried out for 30 min at room temperature. 10 μL TK Antibody-Cryptate/Streptavidin-XL665 (Cisbio 610SAXLG) was then added for 60 min, including EDTA containing detection buffer (Cisbio 62SDBRDF) to stop the reaction.

[2] = biological target: T2, human AXL cytoplasmic domain (Homo sapiens, UniProt P30530); assay: Assay 1b AXL HTRF KinEASE-TK assay; assay type: biochemical
T2 construct: human AXL cytoplasmic domain (Thermo Fisher A31515); purchased Thermo Fisher A31515
T2 sequence (P30530 473-894 limits assumed): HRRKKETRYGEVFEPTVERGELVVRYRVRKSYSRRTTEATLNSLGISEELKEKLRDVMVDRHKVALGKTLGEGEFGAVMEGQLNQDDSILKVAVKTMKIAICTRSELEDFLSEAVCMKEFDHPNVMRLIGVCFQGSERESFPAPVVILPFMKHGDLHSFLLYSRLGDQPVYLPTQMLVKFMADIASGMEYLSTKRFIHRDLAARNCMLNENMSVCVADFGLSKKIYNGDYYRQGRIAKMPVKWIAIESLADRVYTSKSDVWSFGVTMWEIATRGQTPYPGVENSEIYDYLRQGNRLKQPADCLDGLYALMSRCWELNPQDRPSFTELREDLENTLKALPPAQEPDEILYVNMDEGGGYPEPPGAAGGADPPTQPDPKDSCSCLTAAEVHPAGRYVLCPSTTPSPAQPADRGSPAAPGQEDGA
Method in brief: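 Recombinant cytoplasmic domain (5 nM) in kinase buffer with 5 mM MgCl2, 1 mM MnCl2, 1 mM DTT, 50 nM SEB plus test compounds; reaction 30 min at room temperature. EDTA-containing detection with TK antibody-cryptate/streptavidin-XL665 for 60 min; HTRF 665/620 ratio read. IC50 from 4-parameter logistic fit with variable slope.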

[3] = test system: BCR-Ba/F3 control cell line; assay: Assay 5 Ba/F3 cell survival assay, BCR-none control line; assay type: cell-based; conditions: Mus musculus, BaF3
Procedure: Assay 5—Ba/F3 Cell Survival Assays.
The inhibitory potencies of compounds were assessed in a Ba/F3 cell survival assay, using the Ba/F3 Pro B-cell line, recombinantly expressing a BCR-human AXL kinase domain fusion protein (pACD320/AXL, Advanced Cellular Dynamics Inc), TEL-human MERTK fusion domain (pACD1000/MERTK, Advanced Cellular Dynamics Inc), TEL-human Tyro3 fusion domain (pACD1000/TYRO3, Advanced Cellular Dynamics Inc), or control TEL-none (ACD320, Advanced Cellular Dynamics Inc) BRC-none constructs (ACD1000, Advanced Cellular Dynamics Inc). 10 ng/mL recombinant murine IL3 (R&D, 403-ML-010) was included in the media when propagating negative control TEL-none or BCR-none lines only. Cells were maintained in RMPI 1640 (Corning 15-040-CV) culture media containing 10% heat inactivated semi-synthetic FBS (RMBIO FGR-BBT), 2 mM L-Glutamine (Sigma, G7513), 100 IU/mL Penicillin-[…] Streptomycin (Sigma, P4333), and 500 ng/mL Puromycin (Sigma, P8833). Experiments were performed in 50 μl growth media, including the test compounds of interest, and dispensing 5000 cells/well in logarithmic-phase growth into a 384 well white Optiplate (Perkin Elmer 6007299). […] The final assay DMSO concentration was 0.25%. […]
The plate was then equilibrated for 5 min at room temperature and luminescence read on a BMG Pherastar FSX using the LUM plus optic module. […]

[4] = 30 uM ATP, read-out: Assay 1a Mer IC50 30 uM ATP

T1 sequence (Q12866 527-999): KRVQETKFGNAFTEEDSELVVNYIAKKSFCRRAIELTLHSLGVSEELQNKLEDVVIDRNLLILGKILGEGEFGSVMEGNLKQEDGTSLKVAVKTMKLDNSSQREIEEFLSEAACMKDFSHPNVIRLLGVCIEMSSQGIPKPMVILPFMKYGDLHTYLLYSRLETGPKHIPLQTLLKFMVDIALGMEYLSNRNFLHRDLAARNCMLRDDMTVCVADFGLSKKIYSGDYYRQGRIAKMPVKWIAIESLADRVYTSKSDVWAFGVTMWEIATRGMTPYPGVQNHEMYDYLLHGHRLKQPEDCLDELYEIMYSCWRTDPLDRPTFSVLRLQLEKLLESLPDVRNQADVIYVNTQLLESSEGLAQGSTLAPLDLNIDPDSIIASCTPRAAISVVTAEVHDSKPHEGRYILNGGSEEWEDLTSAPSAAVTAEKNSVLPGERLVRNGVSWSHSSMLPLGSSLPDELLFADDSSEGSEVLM

| IC50 [1, 4] [nM] | IC50 [2] [nM] | SMILES | IC50 [3] [nM] | IC50 [1] [nM] |
| --- | --- | --- | --- | --- |
| 55 | 200 | CN1CCC(NC(=O)c2cc3c(Nc4ccc(NC(=O)c5cccn(-c6ccccc6)c5=O)cc4)ccnc3cn2)CC1 [Example 3, N-(1-methyl-4-piperidyl)-4-[4-[(2-oxo-1-phenyl-pyridine-3-carbonyl)amino]anilino]-1,7-naphthyridine-6-carboxamide] | – | – |
| 20 | 16 | O=C(Nc1ccc(Oc2ccnc3cnc(N4CCNCC4)cc23)cc1)c1cccn(-c2ccc(F)cc2)c1=O [Example 12.2, 1-(4-fluorophenyl)-2-oxo-N-[4-[(6-piperazin-1-yl-1,7-naphthyridin-4-yl)oxy]phenyl]pyridine-3-carboxamide] | – | – |
| 56 | 19 | CC(C)n1cc(C(=O)Nc2ccc(Oc3ccnc4cnc(N5CCNCC5)cc34)cc2)c(=O)n(-c2ccccn2)c1=O [Example 12.3, 1-isopropyl-2,4-dioxo-N-[4-[(6-piperazin-1-yl-1,7-naphthyridin-4-yl)oxy]phenyl]-3-(2-pyridyl)pyrimidine-5-carboxamide] | – | – |
| 8 | 6 | CC(C)n1cc(C(=O)Nc2ccc(Oc3ccnc4cnc(N5CCNCC5)cc34)cc2)c(=O)n(-c2ccc(F)cn2)c1=O [Example 12.4, 3-(5-fluoro-2-pyridyl)-1-isopropyl-2,4-dioxo-N-[4-[(6-piperazin-1-yl-1,7-naphthyridin-4-yl)oxy]phenyl]pyrimidine-5-carboxamide] | – | – |
| 1 | 6 | CC(C)n1cc(C(=O)Nc2ccc(Oc3ccnc4cnc(N5CCNCC5)cc34)cc2)c(=O)c(-c2ccc(F)cc2)c1 [Example 13, 5-(4-Fluorophenyl)-1-isopropyl-4-oxo-N-[4-[(6-piperazin-1-yl-1,7-naphthyridin-4-yl)oxy]phenyl]pyridine-3-carboxamide] | – | – |
| 4 | 10 | Cn1cc(C(=O)Nc2ccc(Oc3ccnc4cnc(N5CCNCC5)cc34)cc2)c(=O)c(-c2ccc(F)cc2)c1 [Example 13.1, 5-(4-fluorophenyl)-1-methyl-4-oxo-N-[4-[(6-piperazin-1-yl-1,7-naphthyridin-4-yl)oxy]phenyl]pyridine-3-carboxamide] | – | – |
| 14 | 10 | C[C@H](CO)n1cc(C(=O)Nc2ccc(Oc3ccnc4cnc(C(=O)NC5CCN(C)CC5)cc34)cc2)c(=O)n(-c2ccc(F)cc2)c1=O [Example 14, 4-[4-[[3-(4-Fluorophenyl)-2,4-dioxo-1-[(1R)-2-hydroxy-1-methyl-ethyl]pyrimidine-5-carbonyl]amino]phenoxy]-N-(1-methyl-4-piperidyl)-1,7-naphthyridine-6-carboxamide] | – | – |
| 22 | 10 | CN1CCC(NC(=O)c2cc3c(Oc4ccc(NC(=O)c5cn(C6CC6)c(=O)n(-c6ccc(F)cc6)c5=O)cc4)ccnc3cn2)CC1 [Example 15, 4-[4-[[1-Cyclopropyl-3-(4-fluorophenyl)-2,4-dioxo-pyrimidine-5-carbonyl]amino]phenoxy]-N-(1-methyl-4-piperidyl)-1,7-naphthyridine-6-carboxamide] | – | – |
| 3 | 7 | O=C(Nc1ccc(Oc2ccnc3cnc(N4CCN(C5COC5)CC4)cc23)cn1)c1ccnn(-c2ccc(F)cc2)c1=O [Example 20, 2-(4-fluorophenyl)-N-[5-[[6-[4-(oxetan-3-yl)piperazin-1-yl]-1,7-naphthyridin-4-yl]oxy]-2-pyridyl]-3-oxo-pyridazine-4-carboxamide] | 830 | – |
| 15 | 9 | CC(C)n1cc(C(=O)Nc2ccc(Oc3ccnc4cnc(C(=O)NC5CCN(C)CC5)cc34)cn2)c(=O)n(-c2ccc(F)cc2)c1=O [Example 27.5, 4-[[6-[[3-(4-fluorophenyl)-1-isopropyl-2,4-dioxo-pyrimidine-5-carbonyl]amino]-3-pyridyl]oxy]-N-(1-methyl-4-piperidyl)-1,7-naphthyridine-6-carboxamide] | – | – |
| 8 | 38 | CN1CCC(NC(=O)c2cc3c(Oc4ccc(NC(=O)c5cccn(-c6ccccc6)c5=O)cc4F)ccnc3cn2)CC1 [Example 33, 4-[2-fluoro-4-[(2-oxo-1-phenyl-pyridine-3-carbonyl)amino]phenoxy]-N-(1-methyl-4-piperidyl)-1,7-naphthyridine-6-carboxamide] | – | – |
| 20 | 5 | O=C(Nc1ccc(Oc2ccnc3cnc(N4CCNCC4)cc23)cc1)c1cn(C2CC2)c(=O)n(-c2ccc(F)cc2)c1=O [Example 36, 1-cyclopropyl-3-(4-fluorophenyl)-2,4-dioxo-N-[4-[(6-piperazin-1-yl-1,7-naphthyridin-4-yl)oxy]phenyl]pyrimidine-5-carboxamide] | – | – |
| 3 | 7 | CN1CCC(NC(=O)c2cc3c(Oc4ccc(NC(=O)c5cn(C)cc(-c6ccc(F)cc6)c5=O)cc4)ccnc3cn2)CC1 [Example 37, 4-[4-[[5-(4-fluorophenyl)-1-methyl-4-oxo-pyridine-3-carbonyl]amino]phenoxy]-N-(1-methyl-4-piperidyl)-1,7-naphthyridine-6-carboxamide] | – | – |
| 2 | 5 | CC(C)n1cc(C(=O)Nc2ccc(Oc3ccnc4cnc(C(=O)NC5CCN(C)CC5)cc34)cc2)c(=O)c(-c2ccc(F)cc2)c1 [Example 37.1, 4-[4-[[5-(4-fluorophenyl)-1-isopropyl-4-oxo-pyridine-3-carbonyl]amino]phenoxy]-N-(1-methyl-4-piperidyl)-1,7-naphthyridine-6-carboxamide] | – | – |

| SMILES | IC50 [1, 4] [nM] | IC50 [2] [nM] | IC50 [3] [nM] | IC50 [1] [nM] |
| --- | --- | --- | --- | --- |
| Cc1cc(NC(=O)c2cccn(-c3ccccc3)c2=O)ccc1Oc1ccnc2cnc(N3CCNCC3)cc12 [Example 30, N-[3-methyl-4-[(6-piperazin-1-yl-1,7-naphthyridin-4-yl)oxy]phenyl]-2-oxo-1-phenyl-pyridine-3-carboxamide] | – | 870 | – | 13 |
